Like-named read-outs stand apart in the source and are kept apart here.
Experiments:
HCT116 cells = experiment: AlamarBlue cell proliferation assay, HCT116; conditions: for IC50: read-out: Half maximal inhibitory concentration (IC50) HCT116, 24 hours exposure, AlamarBlue, mean of three replicates ± standard error
Procedure: (§1) Human colorectal carcinoma cell line HCT116 and human breast adenocarcinoma cell line MCF-7 were purchased from ATCC. The cells were cultured in Dulbecco's Modified Eagle's Medium (DMVEM) complemented with 10% fetal bovine serum (FBS) at 37° C. (5% CO2 and 95% humidity). 100 µg/mL streptomycin and 100 U/mL penicillin were used in the media to prevent microbial growth. Assays were performed on cells from passages 3-8.
(§2) AlamarBlue® was used to determine the drug-dose response according to the manufacturer's instruction (Thermo Fisher, Waltham, Massachusetts, United States). The samples of complexes were diluted to a working concentration in DMVEM before their exposure to the cancer cells. The cancer cells were cultivated in 96-well plates for 24 hours. The cell culture medium was then removed and the diluted test compounds were added to the wells. The well plates were incubated for 24 hours at 37° C. with 5% CO2. Subsequently, the cell culture medium was removed for the addition of 10% AlamarBlue® (diluted in DMEM) to each well. The plates were incubated for 3 hours at 37° C. protected from light. The cytotoxicity/proliferation was measured using fluorescence spectrophotometry with fluorescence being read at an excitation wavelength of 560 nm and an emission wavelength of 590 nm. To calculate the percentage difference in reduction between treated and control cells in cytotoxicity/proliferation assays, the following formula was used: […]
(§3) The prepared […] complexes 1-4 were evaluated for their inhibition of cell proliferation towards two human cancer cell lines: HCT116 and MCF-7. The cells were treated with a range of concentrations (0.3, 1, 3, 10, 100 μM) of the complexes for 24 hours. The cells viability were then assessed and half maximal inhibitory concentration (IC50) values were calculated thereafter. […] These values are about 6- to 20-fold lower than cisplatin IC50 values.

MCF-7 cells [1] = experiment: AlamarBlue cell proliferation assay, MCF-7; assay type: cell-based, human; conditions: 24 hours exposure, mean of three replicates ± standard error
Procedure: as §1, §2, §3

[2] = system: prostate (PC-3) cancer cells; conditions: PC-3 cells; cited from earlier work
[3] = system: glioblastoma (U87-MG) cancer cells; conditions: cited from earlier work
HCT116 cancer cell line = conditions: value from cited reference; read-out: IC50 HCT116 (literature complexes); cited from earlier work
MCF-7 cells [4] = experiment: Mitochondrial membrane potential (ΔΨm), JC-1 dye; assay type: cell-based, human; conditions: MCF-7, 24 hours
Procedure: MCF-7 cells (1×10^4 cells per well in a 96-well plate) were treated with different concentrations of complexes, and untreated cells were used as a negative control. After treatment for 24 hours, 5,5′,6,6′-tetrachloro-1,1′,3,3′-tetraethylbenzimidazolocarbocyanine iodide (JC-1) dye (Thermo Fisher, Waltham, Massachusetts, United States) was added to each well containing the cells. The staining was performed following the protocol provided by the manufacturer. A fluorescence spectrophotometer was used to measure the fluorescence of JC-1-stained cells, and fluorescence signals in the red and green channels were recorded separately.
To examine the effect of complexes 1-4 on mitochondrial membrane potential (ΔΨm), JC-1 fluorescence dye was used to stain intact and depolarized mitochondria in MCF-7 cells following exposure to the complexes.

[5] = Solution chemistry / stability by UV-Vis spectrophotometry; assay type: physicochemical; conditions: room temperature; complexes 2, 3 in DMSO:H2O (3:7); complex 4 in 100% DMSO and DMSO:H2O (1:1)
Procedure: The solution chemistry of complexes 2, 3, and 4 ([…], 10 mL) was investigated using ultraviolet-visible (UV-Vis) spectrophotometry at room temperature. The studied complexes are partially soluble in aqueous solution. Complexes 2 and 3 were dissolved in the mixture of DMSO:H2O (3:7), where H2O is a co-solvent of DMSO. A UV-Vis experiment was performed initially at time=0 (2 and 3) and at time=24 hours (2′ and 3′) (FIG. 26A). Furthermore, complex 4 was dissolved in 100% DMSO and a mixture of (DMSO:H2O) (1:1), where H2O is co-solvent of DMSO. Further, a UV-Vis experiment was performed initially at time=0 (4) and at time=24 hours.

MCF-7 cancer cell line = conditions: value from cited reference; read-out: IC50 MCF-7 (literature complexes); cited from earlier work
[6] = read-out: Half maximal inhibitory concentration (IC50) MCF-7

**Q.** Which results are given for N.N.[Cl][Pt][Cl] [Cisplatin, reference compound]?
**A.** IC50 (HCT116 cells): 20.8 ± 0.93 µM; IC50 (MCF-7 cells [1]; [6]): 21.1 ± 1.41 µM

**Q.** For COc1cccc(OC)c1[PH]([Au+][PH](c1c(OC)cccc1OC)(c1c(OC)cccc1OC)c1c(OC)cccc1OC)(c1c(OC)cccc1OC)c1c(OC)cccc1OC.F[P-](F)(F)(F)(F)F [[Au{P(2,6-dimethoxyphenyl)3}2]PF6], which “fold higher cytotoxicity than cisplatin” value [2] is on record?
**A.** 30 fold

**Q.** What about the “fold higher cytotoxicity than cisplatin” value [3] of the same compound?
**A.** 30 fold

**Q.** Which IC50 (HCT116 cancer cell line) does the source give for “Chlorotriphenylposphine-1,3-bis(diphenylphosphino)propanegold(I) [[Au(dppp)(PPh3)Cl]]” here?
**A.** 4.17 µM

**Q.** For [Au2(Bdbp)(Dpma)]P2F12 [Complex 4], which IC50 (HCT116 cells) is on record?
**A.** 0.93 µM

**Q.** And the IC50 (MCF-7 cells [1]; listed as 4, read-out: Half maximal inhibitory concentration (IC50) MCF-7)?
**A.** 1.2 ± 0.32 µM

**Q.** And the IC50 (MCF-7 cells [1]; listed as complex 4, read-out: Half maximal inhibitory concentration (IC50) MCF-7)?
**A.** 1.8 µM

**Q.** What about the “effect on mitochondrial membrane potential (ΔΨm) at 2.5 μM” value (MCF-7 cells [4]) of the same compound?
**A.** most reduction of ΔΨm

**Q.** And the “stability in solution (UV-Vis, time 0 vs 24 hours)” value [5]?
**A.** high stability

**Q.** Which results are given for [Au2(Bdbp)(Dppb)]P2F12 [Complex 3]?
**A.** IC50 (HCT116 cells): 1.8 ± 0.22 µM; increase of cytotoxic effect on lengthening linker from 2 carbons (complex 1) to 4 carbons (HCT116 cells; relative to complex 1, FIG. 24A/24E vs 24C/24G (HCT116 and MCF-7)): about 4.5 fold; IC50 (MCF-7 cells [1]; [6]): 1.3 ± 0.54 µM; stability in solution (UV-Vis, time 0 vs 24 hours) [5]: less stability

**Q.** Which IC50 (MCF-7 cancer cell line) does the source give for [C](#Cc1ccncc1)[Au][PH](CCCC[PH]([Au][C]#Cc1ccncc1)(c1ccccc1)c1ccccc1)(c1ccccc1)c1ccccc1 [[Au2(dppb)(4-ep)2]] here?
**A.** 2.8 ± 0.6 µM

**Q.** For [Au2(Bdbp)(Dppp)]P2F12 [Complex 2], which IC50 (HCT116 cells) is on record?
**A.** 3.6 ± 0.37 µM

**Q.** What about the IC50 (MCF-7 cells [1]; [6]) of the same compound?
**A.** 2.3 ± 0.24 µM

**Q.** For [Au2(Bdbp)(Dppe)]P2F12 [Complex 1], which IC50 (HCT116 cells) is on record?
**A.** 8.2 µM

**Q.** What about the IC50 (MCF-7 cells [1]; [6]) of the same compound?
**A.** 7.9 µM

**Q.** And the “effect on mitochondrial membrane potential (ΔΨm) at 2.5 μM” value (MCF-7 cells [4])?
**A.** least reduction of ΔΨm

From patent US20250041427A1, “DINUCLEAR PHOSPHANE GOLD(I) COMPLEXES FOR TREATING CANCER” (priority 2023, published 2025)
